Legend:
[1] = target: T1, (UniProt P0A3G2+P42858, A155T/A167V/A172T/A224E/C128F/C176G/D78G/DEL18-38/E160K/E257K/H272N/K175M/K195N/L47V/L88M/N227D/S58T/T264A/Y273L/Y87F); assay: AggTag imaging of Htt-Halo aggregation in HEK293T cells; type: cell-based, human; conditions: non-aggregating control
T1 construct: using the Huntingtin exon 1 protein (Htt) with expansion of a polyglutamine tract within its N-terminal domain; expressed in transfected cells; host or cells: HEK293T
Experimental: (§1) (a) The dual-probe live cell imaging experiment. Halo-tag fusion proteins were labeled in the presence of both the non-fluorogenic coumarin ligand (1 μM) and 4 (1 µM). The newly synthesized Htt-Halo proteins were equally labeled with either the coumarin ligand or 4. The coumarin ligand is fluorescent both before and after aggregation of Htt-Halo. By contrast, signal of 4 exclusively arises from Htt-Halo aggregates. (b) Dual probes labeling confirms expression of proteins. The Htt Q0-Halo and Htt Q97-Halo proteins were transiently transfected and expressed in HEK293T cells for 24 h, in the presence of 1 μM coumarin Halo-Tag ligand and 1 μM of 4. In cells expressing Htt Q97-Halo proteins, punctate structures in the coumarin channel coincided with the turn-on fluorescence of 4. […] (c) The Htt Q97 protein, without a Halo-Tag, was transiently transfected and expressed in HEK293T cells for 24 h, in the presence of 1 μM of 4. No turn-on fluorescence of 4 was found. Red: fluorescence from the SOD1(V31A)-Halo-4 conjugate. Blue: coumarin Halo-Tag ligand in (a) or nucleus stained by Hoechst 33342 in (b). Scale bar: 10 μm. (d) Fluorescent intensity of cell lysates from samples as represented in FIG. 4d. Error bars: standard error (n=3).
(§2) Confocal microscope imaging. The HEK293T cells were seeded at 25% confluency 24 h prior to transfection in poly-D-lysine coated 35 mm glass bottom dishes (MatTek Corporation). Cells were grown in DMEM media supplemented with 10% FBS and Penicillin-Streptomycin antibiotics until they reached 50-60% confluency. Transfection was carried out using X-tremeGene™ 9 DNA transfection reagent (Roche) according to the manufacturer's instructions. Proteins were expressed for 24 h prior to analyses. To label proteins with Halo-Tag fusion, protein expression was carried out in the presence of 1 μM 4 or 1 μM TMR Halo-Tag ligand to form covalent conjugate with the Halo-Tag domain. For a dual-probe labeling scheme, 1 μM 4 and 1 μM coumarin Halo-Tag ligand to simultaneously form covalent conjugate with the Halo-Tag domain.
(§3) To wash off unbound Halo ligands, the cells were washed extensively by replacing media with fresh DMEM and incubating for 30 min at 37° C. For confocal fluorescence imaging with either 4-labeled Halo fusion, TMR-labeled Halo fusion, EGFP fusion, or mCherry fusion proteins, DMEM media was replaced with FluoroBrite™ DMEM media (ThermoFisher) supplemented with 10% FBS, and Hoechst 33342 (0.1 μg/mL). For confocal fluorescence imaging with either dual-probe labeled Halo fusion with 4 and coumarin ligand, DMEM media was replaced with FluoroBrite™ DMEM media (ThermoFisher) supplemented with 10% FBS. The samples were incubated for 30 min prior to imaging. Media was replaced with fresh FluoroBrite™ DMEM media (ThermoFisher) supplemented with 10% FBS prior to imaging. Confocal images were obtained using Olympus FluoView™ FV1000 confocal microscope. The EGFP fluorescence was visualized using blue argon (488 nm) laser. Nuclear staining and coumarin fluorescence was visualized using violet laser (405 nm). Fluorescence of TMR and 4 were visualized using green HeNe laser (543 nm).

[2] = tested on: Htt-97Q-Halo; assay: as above; type: cell-based, human; conditions: control
Experimental: as §1, §2, §3

[3] = target: T2, Htt-97Q-Halo (UniProt P0A3G2+P42858, A155T/A167V/A172T/A224E/C128F/C176G/D78G/E160K/E257K/H272N/K175M/K195N/L47V/L88M/N227D/S58T/T264A/Y273L/Y87F); assay: as above; type: cell-based, human
T2 construct: using the Huntingtin exon 1 protein (Htt) with expansion of a polyglutamine tract within its N-terminal domain; expressed in transfected cells; host or cells: HEK293T
Experimental: as §1, §2, §3

[4] = target: bovine serum albumin and sodium dodecyl sulfate (Bos taurus, UniProt P02769); assay: Fluorescence background response to BSA and SDS; conditions: incubated with BSA or SDS
Experimental: 20 µM of fluorophores were incubated in H2O, glycerol, dioxane, BSA (2 mg/mL), or SDS (0.2%). Intensities were normalized against the value in either 100% glycerol as 1 for CCVJ and 4, or dioxane as 1 for SBD. Parameters for fluorescence measurement: SBD (Ex=450 nm/Em=545 nm), CCVJ (Ex=450 nm/Em=500 nm), 4 (Ex=530 nm/Em=630 nm). Error bars: standard error (n=3).

T2 sequence (P42858+P0A3G2 fused with the stated changes): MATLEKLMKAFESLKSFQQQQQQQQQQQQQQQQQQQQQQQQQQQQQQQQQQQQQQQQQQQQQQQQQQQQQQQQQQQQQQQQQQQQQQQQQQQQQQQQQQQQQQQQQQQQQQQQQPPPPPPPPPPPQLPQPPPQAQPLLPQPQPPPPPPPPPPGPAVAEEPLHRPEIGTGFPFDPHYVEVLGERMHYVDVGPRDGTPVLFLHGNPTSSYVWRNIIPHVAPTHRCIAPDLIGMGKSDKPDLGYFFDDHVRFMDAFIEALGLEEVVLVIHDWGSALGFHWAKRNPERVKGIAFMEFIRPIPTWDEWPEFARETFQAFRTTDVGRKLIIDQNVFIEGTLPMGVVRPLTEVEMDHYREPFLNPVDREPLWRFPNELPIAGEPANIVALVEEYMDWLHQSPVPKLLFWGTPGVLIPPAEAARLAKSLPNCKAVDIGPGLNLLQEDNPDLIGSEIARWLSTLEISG
T1 sequence (P42858+P0A3G2 fused with the stated changes): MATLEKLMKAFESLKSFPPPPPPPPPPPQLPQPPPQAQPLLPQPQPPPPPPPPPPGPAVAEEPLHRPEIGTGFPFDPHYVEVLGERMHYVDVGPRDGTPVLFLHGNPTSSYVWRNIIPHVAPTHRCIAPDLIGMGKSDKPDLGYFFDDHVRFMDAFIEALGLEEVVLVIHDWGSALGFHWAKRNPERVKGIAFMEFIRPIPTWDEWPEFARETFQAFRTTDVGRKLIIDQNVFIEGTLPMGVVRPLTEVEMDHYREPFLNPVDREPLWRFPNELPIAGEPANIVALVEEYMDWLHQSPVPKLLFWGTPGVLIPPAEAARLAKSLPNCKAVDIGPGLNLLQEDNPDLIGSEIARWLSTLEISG
bovine serum albumin and sodium dodecyl sulfate, sequence (P02769 25-607): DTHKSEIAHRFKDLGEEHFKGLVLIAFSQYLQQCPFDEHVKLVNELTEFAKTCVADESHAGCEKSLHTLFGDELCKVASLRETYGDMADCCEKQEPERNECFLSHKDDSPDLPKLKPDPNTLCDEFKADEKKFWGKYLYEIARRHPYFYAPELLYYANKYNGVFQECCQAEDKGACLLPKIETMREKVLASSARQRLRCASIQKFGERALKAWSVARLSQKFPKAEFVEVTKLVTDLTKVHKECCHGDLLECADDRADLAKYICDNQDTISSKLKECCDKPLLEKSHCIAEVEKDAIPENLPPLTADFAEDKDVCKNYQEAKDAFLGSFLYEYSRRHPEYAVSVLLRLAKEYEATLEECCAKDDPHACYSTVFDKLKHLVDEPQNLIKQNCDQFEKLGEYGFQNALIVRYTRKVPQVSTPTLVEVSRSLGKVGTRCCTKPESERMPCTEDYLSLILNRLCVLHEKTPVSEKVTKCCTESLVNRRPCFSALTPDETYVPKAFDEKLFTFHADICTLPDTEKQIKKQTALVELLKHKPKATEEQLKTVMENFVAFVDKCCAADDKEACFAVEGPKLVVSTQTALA

`CN(C)c1ccc(/C=C2N=C(/C=C/c3ccc(N(CCO)CCO)cc3)N(CC(=O)N[C@H]3CC[C@H](C(=O)NCCOCCOCCCCCCCl)CC3)C\2=O)cc1` [Compound 4, (1r,4r)-4-(2-((Z)-2-((E)-4-(bis(2-hydroxyethyl)amino)styryl)-4-(4-(dimethylamino)benzylidene)-5-oxo-4,5-dihydro-1H-imidazol-1-yl)acetamido)-N-(2-(2-((6-chlorohexyl)oxy)ethoxy)ethyl)cyclohexanecarboxamide] was tested. Which “fluorescence in cells expressing Htt-0Q-Halo” value [1] did it give?
Its value is “dark background”.

What about the “fluorescence in cells co-expressing Htt-Q97-GFP and Halo-Tag or just expressing Htt-Q97” value [2] of the same compound?
The value was “showed no fluorescence of 4”.

And the “turn-on fluorescence in cells expressing Htt-97Q-Halo” value [3]?
Its value is “observed as puncta without any background diffuse fluorescence”.

What about the “origin of Htt-97Q-Halo fluorescence after fractionation of lysate” value ([3]; cell lysate) of the same compound?
Its value is “primarily originated from the insoluble fraction”.

And the “fluorescent background signal versus SBD and CCVJ” value [4]?
Its value is “substantially lower fluorescent background signal”.

— patent US20210094922A1, “Dyes for Analysis of Soluble Protein Aggregates or Misfolded Protein Oligomers” (The Penn State Research Foundation, priority 2018, published 2021)
